# Measurements published in patent US11091478B2 (Fochon Pharmaceuticals, Ltd., priority 2017, dated 2021).
# Columns and labels:
# DOHH2 cells = test: Cell proliferation assay (MTS), DOHH2 cells, 120 h; type: cell-based; settings: Homo sapiens, DOHH-2, 120 h
# Outline: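 Treatment lasts 72 h for RS4;11 and 120 h for DOHH2 cells seeded at 5000 per well in serum-containing RPMI-1640. A 2 h MTS step, halted with 10% SDS, precedes dual-wavelength absorbance reading and IC50 fitting.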
# RS4;11 cells = test: Cell proliferation assay (MTS), RS4;11 cells, 72 h; type: cell-based; settings: Homo sapiens, RS4-11, 72 h
# From the text: Cell Proliferation Assays
# MTS testing kit was purchased from Promega. The RPMI-1640, Fetal bovine serum and Penicillin-Streptomycin were purchased from Gibco. Dimethyl sulfoxide (DMSO) was purchased from Sigma.
# To investigate whether a compound is able to inhibit the activity of BCL-2 in cells, a mechanism-based assay using DOHH2 (DSMZ No.® ACC 47) and RS4;11 (ATCC® CRL-1873™) cell was developed. In this assay, inhibition of Bcl-2 was detected by the inhibition of DOHH2 cells proliferation. DOHH2 cells were cultured in culture flasks to 40-80% confluence in RPMI-1640 plus 10% fetal bovine serum. Cells were collected and plated onto 96-well plates at desired cell density (5000 cells/well). Plates were incubated overnight at 37° C., with 5% CO2 to adhere. Compounds were added to the plates, and the final compound concentrations were 10000, 3333, 1111, […], 124, 41, 14, 4.6 and 1.5 nM. Plates plated with DOHH2 or RS4;11 cells were placed at 37° C., with 5% CO2 for 120 h (DOHH2) or 72 h (RS4;11) respectively. 20 μl MTS/100 μl medium mixture solution were added to each well and incubate the plates for exactly 2 hours. The reaction was stopped by adding 25 μl 10% SDS per well. Measure absorbance at 490 nm and 650 nm (reference wavelength). IC50 was calculated using GraphPad Prism 5.0.
# Select compounds prepared as described above were assayed according to the biological procedures described herein.
SMILES,IC50 (DOHH2 cells),IC50 (RS4;11 cells)
"CC1(C)CCC(CN2CCN(c3ccc(C(=O)NS(=O)(=O)c4cc5c(c([N+](=O)[O-])c4)N[C@H](CCN4CCOCC4)C5)c(Oc4cnc5[nH]ccc5c4)c3)CC2)=C(c2ccc(Cl)cc2)C1 [Example 1-2, (S)-2-((1H-pyrrolo[2,3-b]pyridin-5-yl)oxy)-4-(4-((4′-chloro-5,5-dimethyl-3,4,5,6-tetrahydro-[1,1′-biphenyl]-2-yl)methyl)piperazin-1-yl)-N-((2-(2-morpholinoethyl)-7-nitroindolin-5-yl)sulfonyl)benzamide]",79 nM,38 nM
"CN1CCN(C[C@@H]2Cc3cc(S(=O)(=O)NC(=O)c4ccc(N5CCN(CC6=C(c7ccc(Cl)cc7)CC(C)(C)CC6)CC5)cc4Oc4cnc5[nH]ccc5c4)cc([N+](=O)[O-])c3N2)CC1 [Example 1-3, (S)-2-((1H-pyrrolo[2,3-b]pyridin-5-yl)oxy)-4-(4-((4′-chloro-5,5-dimethyl-3,4,5,6-tetra-hydro-[1,1′-biphenyl]-2-yl)methyl)piperazin-1-yl)-N-((2-((4-methylpiperazin-1-yl)meth-yl)-7-nitroindolin-5-yl)sulfonyl)benzamide]",20 nM,8 nM
CN(C)C[C@@H]1Cc2cc(S(=O)(=O)NC(=O)c3ccc(N4CCN(CC5=C(c6ccc(Cl)cc6)CC(C)(C)CC5)CC4)cc3Oc3cnc4[nH]ccc4c3)cc([N+](=O)[O-])c2N1 [Example 1-5],211 nM,51 nM
"CN1CCN(C[C@H]2Cc3cc(S(=O)(=O)NC(=O)c4ccc(N5CCN(CC6=C(c7ccc(Cl)cc7)CC(C)(C)CC6)CC5)cc4Oc4cnc5[nH]ccc5c4)cc([N+](=O)[O-])c3N2)CC1 [Example 1-7, (R)-2-((1H-pyrrolo[2,3-b]pyridin-5-yl)oxy)-4-(4-((4′-chloro-5,5-dimethyl-3,4,5,6-tetra-hydro-[1,1′-biphenyl]-2-yl)methyl)piperazin-1-yl)-N-((2-((4-methylpiperazin-1-yl)meth-yl)-7-nitroindolin-5-yl)sulfonyl)benzamide]",26 nM,3 nM
"CC1(C)CCC(CN2CCN(c3ccc(C(=O)NS(=O)(=O)c4cc5c(c([N+](=O)[O-])c4)N[C@@H](CN4CCOCC4)C5)c(Oc4cnc5[nH]ccc5c4)c3)CC2)=C(c2ccc(Cl)cc2)C1 [Example 1-8, (R)-2-((1H-pyrrolo[2,3-b]pyridin-5-yl)oxy)-4-(4-((4′-chloro-5,5-dimethyl-3,4,5,6-tetra-hydro-[1,1′-biphenyl]-2-yl)methyl)piperazin-1-yl)-N-((2-(morpholinomethyl)-7-nitro-indolin-5-yl)sulfonyl)benzamide]",27 nM,1 nM
"CC1(C)CCC(CN2CCN(c3ccc(C(=O)NS(=O)(=O)c4cc5c(c([N+](=O)[O-])c4)N[C@@H](CN4CCC(C)(O)CC4)C5)c(Oc4cnc5[nH]ccc5c4)c3)CC2)=C(c2ccc(Cl)cc2)C1 [Example 1-9, (R)-2-((1H-pyrrolo[2,3-b]pyridin-5-yl)oxy)-4-(4-((4′-chloro-5,5-dimethyl-3,4,5,6-tetra-hydro-[1,1′-biphenyl]-2-yl)methyl)piperazin-1-yl)-N-((2-((4-hydroxy-4-methylpiperidin-1-yl)methyl)-7-nitroindolin-5-yl)sulfonyl) benzamide]",66 nM,80 nM
"CN(C)C[C@H]1Cc2cc(S(=O)(=O)NC(=O)c3ccc(N4CCN(CC5=C(c6ccc(Cl)cc6)CC(C)(C)CC5)CC4)cc3Oc3cnc4[nH]ccc4c3)cc([N+](=O)[O-])c2N1 [Example 1-10, (R)-2-((1H-pyrrolo[2,3-b]pyridin-5-yl)oxy)-4-(4-((4′-chloro-5,5-dimethyl-3,4,5,6-tetra-hydro-[1,1′-biphenyl]-2-yl)methyl)piperazin-1-yl)-N-((2-((dimethylamino)methyl)-7-nitroindolin-5-yl)sulfonyl)benzamide]",33 nM,16 nM
"CC1(C)CCC(CN2CCN(c3ccc(C(=O)NS(=O)(=O)c4cc5c(c([N+](=O)[O-])c4)N[C@@H](CO)C5)c(Oc4cnc5[nH]ccc5c4)c3)CC2)=C(c2ccc(Cl)cc2)C1 [Example 1-11, (R)-2-((1H-pyrrolo[2,3-b]pyridin-5-yl)oxy)-4-(4-((4′-chloro-5,5-dimethyl-3,4,5,6-tetra-hydro-[1,1′-biphenyl]-2-yl)methyl)piperazin-1-yl)-N-((2-(hydroxymethyl)-7-nitroindolin-5-yl)sulfonyl)benzamide]",154 nM,69 nM
"CN1CCN(CC[C@@H]2Cc3cc(S(=O)(=O)NC(=O)c4ccc(N5CCN(CC6=C(c7ccc(Cl)cc7)CC(C)(C)CC6)CC5)cc4Oc4cnc5[nH]ccc5c4)cc([N+](=O)[O-])c3N2)CC1 [Example 1-12, (S)-2-((1H-pyrrolo[2,3-b]pyridin-5-yl)oxy)-4-(4-((4′-chloro-5,5-dimethyl-3,4,5,6-tetra-hydro-[1,1′-biphenyl]-2-yl)methyl)piperazin-1-yl)-N-((2-(2-(4-methylpiperazin-1-yl)eth-yl)-7-nitroindolin-5-yl)sulfonyl)benzamide]",299 nM,58 nM
"CC1(C)CCC(CN2CCN(c3ccc(C(=O)NS(=O)(=O)c4cc5c(c([N+](=O)[O-])c4)N[C@H](CCN4CCC(C)(O)CC4)C5)c(Oc4cnc5[nH]ccc5c4)c3)CC2)=C(c2ccc(Cl)cc2)C1 [Example 1-13, (S)-2-((1H-pyrrolo[2,3-b]pyridin-5-yl)oxy)-4-(4-((4′-chloro-5,5-dimethyl-3,4,5,6-tetra-hydro-[1,1′-biphenyl]-2-yl)methyl)piperazin-1-yl)-N-((2-(2-(4-hydroxy-4-methylpiper-idin-1-yl)ethyl)-7-nitroindolin-5-yl)sulfonyl) benzamide]",91 nM,74 nM
"CN(C)CC[C@@H]1Cc2cc(S(=O)(=O)NC(=O)c3ccc(N4CCN(CC5=C(c6ccc(Cl)cc6)CC(C)(C)CC5)CC4)cc3Oc3cnc4[nH]ccc4c3)cc([N+](=O)[O-])c2N1 [Example 1-14, (S)-2-((1H-pyrrolo[2,3-b]pyridin-5-yl)oxy)-4-(4-((4′-chloro-5,5-dimethyl-3,4,5,6-tetra-hydro-[1,1′-biphenyl]-2-yl)methyl)piperazin-1-yl)-N-((2-(2-(dimethylamino)ethyl)-7-nitroindolin-5-yl)sulfonyl)benzamide]",57 nM,52 nM
"CN1CCN(CC[C@H]2Cc3cc(S(=O)(=O)NC(=O)c4ccc(N5CCN(CC6=C(c7ccc(Cl)cc7)CC(C)(C)CC6)CC5)cc4Oc4cnc5[nH]ccc5c4)cc([N+](=O)[O-])c3N2)CC1 [Example 1-15, (R)-2-((1H-pyrrolo[2,3-b]pyridin-5-yl)oxy)-4-(4-((4′-chloro-5,5-dimethyl-3,4,5,6-tetrahydro-[1,1′-biphenyl]-2-yl)methyl)piper-azin-1-yl)-N-((2-(2-(4-methylpiperazin-1-yl)ethyl)-7-nitroindolin-5-yl)sulfonyl) benzamide]",50 nM,15 nM
"CC1(C)CCC(CN2CCN(c3ccc(C(=O)NS(=O)(=O)c4cc5c(c([N+](=O)[O-])c4)N[C@@H](CCN4CCOCC4)C5)c(Oc4cnc5[nH]ccc5c4)c3)CC2)=C(c2ccc(Cl)cc2)C1 [Example 1-16, (R)-2-((1H-pyrrolo[2,3-b]pyridin-5-yl)oxy)-4-(4-((4′-chloro-5,5-dimethyl-3,4,5,6-tetra-hydro-[1,1′-biphenyl]-2-yl)methyl)piperazin-1-yl)-N-((2-(2-morpholinoethyl)-7-nitro-indolin-5-yl)sulfonyl)benzamide]",73 nM,16 nM
"CC1(C)CCC(CN2CCN(c3ccc(C(=O)NS(=O)(=O)c4cc5c(c([N+](=O)[O-])c4)N[C@@H](CCN4CCC(C)(O)CC4)C5)c(Oc4cnc5[nH]ccc5c4)c3)CC2)=C(c2ccc(Cl)cc2)C1 [Example 1-17, (R)-2-((1H-pyrrolo[2,3-b]pyridin-5-yl)oxy)-4-(4-((4′-chloro-5,5-dimethyl-3,4,5,6-tetra-hydro-[1,1′-biphenyl]-2-yl)methyl)piperazin-1-yl)-N-((2-(2-(4-hydroxy-4-methylpiper-idin-1-yl)ethyl)-7-nitroindolin-5-yl)sulfonyl) benzamide]",61 nM,56 nM
"CN(C)CC[C@H]1Cc2cc(S(=O)(=O)NC(=O)c3ccc(N4CCN(CC5=C(c6ccc(Cl)cc6)CC(C)(C)CC5)CC4)cc3Oc3cnc4[nH]ccc4c3)cc([N+](=O)[O-])c2N1 [Example 1-18, (R)-2-((1H-pyrrolo[2,3-b]pyridin-5-yl)oxy)-4-(4-((4′-chloro-5,5-dimethyl-3,4,5,6-tetra-hydro-[1,1′-biphenyl]-2-yl)methyl)piperazin-1-yl)-N-((2-(2-(dimethylamino)ethyl)-7-nitroindolin-5-yl)sulfonyl)benzamide]",5 nM,18 nM
